Assay results as given in ChEMBL document CHEMBL1135977, “Comparison of 3D structures and AT(1) binding properties of pyrazolidine-3,5-diones and tetrahydropyridazine-3,6-diones with parent antihypertensive drug irbesartan” (J Med Chem, 2002).

How the values were obtained:
[1] = Inhibition of AII(50 nM) induced intracellular [Ca2+] increase in PLC-PRF cells; type: functional, cell-based; conditions: Homo sapiens
[2] = biological target: T1, Type-1 angiotensin II receptor (Homo sapiens, UniProt P30556); assay: In vitro binding affinity towards Angiotensin II receptor, type 1 of human hepatoma cell line PLC-PRF-5
T1 sequence (P30556 whole entry): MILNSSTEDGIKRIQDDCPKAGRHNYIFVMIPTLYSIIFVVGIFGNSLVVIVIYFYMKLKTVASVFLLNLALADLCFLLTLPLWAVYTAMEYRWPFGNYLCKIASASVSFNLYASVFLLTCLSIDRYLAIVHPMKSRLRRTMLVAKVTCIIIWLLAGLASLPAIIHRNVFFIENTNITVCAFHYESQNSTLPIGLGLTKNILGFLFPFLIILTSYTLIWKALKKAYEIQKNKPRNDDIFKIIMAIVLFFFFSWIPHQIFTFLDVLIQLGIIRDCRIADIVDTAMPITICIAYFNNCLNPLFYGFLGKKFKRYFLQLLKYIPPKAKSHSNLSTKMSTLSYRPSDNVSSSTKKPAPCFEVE

Row | IC50 [1] | Ki [2] | SMILES
1 | 9 nM | 14 nM | CCCCN1C(=O)CC2(CCCC2)C(=O)N1Cc1ccc(-c2ccccc2-c2nn[nH]n2)cc1
2 | 102 nM | 80 nM | CCCCN1C(=O)C2(CCCC2)CC(=O)N1Cc1ccc(-c2ccccc2-c2nnn[nH]2)cc1
3 | 4 nM |  | CCCCC1=NC2(CCCC2)C(=O)N1Cc1ccc(-c2ccccc2-c2nnn[nH]2)cc1 [IRBESARTAN]
4 | 28 nM |  | CCCCN1C(=O)C2(CCCC2)C(=O)N1Cc1ccc(-c2ccccc2-c2nn[nH]n2)cc1
